Where two headings read alike, the source gives them in different places.
How the values were obtained:
[1] = test system: T125A mutant virus (HIV-1 NL-432 recombinant molecular clone, IN gene); experiment: HIV replication inhibition assay against integrase 124/125 mutant virus (Test Example 2); format: cell-based
Outline: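 EC50 is the compound concentration blocking half of virus-induced cell death, measured by MTT (OD 560 nm, 690 nm reference) after 4 days at 37 °C. Integrase 124/125 mutant NL-432 virus from transfected 293T cells (60 pfu) was added to 2.5×10^4 MT-4 cells with compound.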

[2] = test system: HIV (HTLV-IIIB strain); experiment: HIV replication inhibition assay (Test Example 1; MT-4 cells, MTT); format: cell-based; conditions: MT-4 cells, MTT; for EC50: read-out: EC50; for EC90: read-out: EC90
Description: HIV (HTLV-IIIB strain) persistent infected human T cell strain Molt-4 clone8 was cultured in RPMI-1640 medium supplemented with 10% fetal bovine serum and the supernatant was filtered, then the virus titer was measured and stored at −80° C. Each anti-human immunodeficiency virus active substance was diluted with the above culture medium to the designated concentration, which was dispensed into 96-well microtiter plate by 50 μL. Next, 100 μL of MT-4 cell suspension (2.5×10^4 cells) was dispensed into each well, then 50 μl of the above HIV-containing supernatant diluted with the above culture medium was added thereto (60 pfu (plaque forming unit)).
Cell mixture was cultured at 37° C. in CO2 incubator for four days, then 30 μL of MTT (3-(4,5-dimethylthiazole-2-yl)-2,5-diphenyltetrazolyum bromide) reagent (5 mg/mL in PBS) was added to all wells followed by incubation for 1 hour. In this step, MTT was reduced to insoluble formazan in living cells. To elute generated formazan 150 μL of the culture supernatant was removed from all wells, then 150 μL of cell lysis solution (10% Triton X-100 and 0.4% (v/v)-HCl containing isopropanol) was added thereto, followed by shaking with a plate mixer. The formazan was measured with micro plate reader at OD: 560 nm and 690 nm (reference wavelength) and the result was compared with the reference wells. EC50 and EC90 mean the compound concentration at which cytotoxicity caused by virus infection is inhibited 50% and 90%, respectively.

[3] = test system: HIV; format: cell-based; conditions: EC50 in the presence of human serum (25%) versus without human serum, MT-4 cells
Outline: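 HIV-infected MT-4 cells (3×10^4/well, infected 1 h at 37° C) are grown 4 days with compound that was first mixed 1 h with human serum or with medium only. Potency shift is the EC50 with serum divided by the EC50 without serum.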

[4] = test system: sheep red blood cells (RBC); experiment: Photohemolysis test (Test Example 13); format: cell-based; conditions: 0.0008 to 0.1 w/v %, 10 J/cm2 UV-irradiation (290-400 nm)
Text: Aliquots of sheep red blood cells (RBC) suspension prepared with medium to make a 2.5 v/v % concentration are dispensed into microplates. The compound of the present invention was desolved with a vehicle to make target concentrations and then these solutions were immediately added (in concentrations of 0.0008 to 0.1 w/v %) into the microplates. The mixtures on the microplates were exposed to 10 J/cm2 of UV-irradiation (UV-A and UV-B, 290-400 nm) with a GL20SE lamp (SANKYO DENKI) and a FL20S-BLB lamp (Panasonic). After the UV-irradiation, the mixtures were centrifuged. Aliquots of supernatant were transferred to a microplate. Absorbance of the supernatants was measured at 540 nm and 630 nm for judgement of the potential of phototoxicity. In the study, two endpoints were evaluated in biomembrane impairment (% of photohemolysis index; PI) and hyperoxidation of lipid membrane (methemoglobin formation; met-Hb) with the absorbance at 540 nm and 630 nm, respectively. PI and met-Hb were assessed based on the negative criteria (−), PI<10% and changes in absorbance at 630 nm<0.05, respectively. All else was judged as positive (+).

[5] = biological target: CYP3A4 (Homo sapiens (Human), UniProt P08684); experiment: CYP3A4 (MDZ) MBI test (Test Example 6); conditions: pooled human liver microsomes, midazolam 1-hydroxylation, preincubation 0 or 30 min
[6] = biological target: CYP2C9 (Homo sapiens (Human), UniProt P11712); experiment: CYP inhibition assay, tolbutamide methyl-hydroxylation (Test Example 4); format: in vitro ADME; conditions: pooled human hepatic microsome, 100 μmol/L tolbutamide, 15 minutes, 37° C.
Description: Using commercially available pooled human hepatic microsome, and employing, as markers, 7-ethoxyresorufin O-deethylation (CYP1A2), tolbutamide methyl-hydroxylation (CYP2C9), mephenytoin 4′-hydroxylation (CYP2C19), dextromethorphan O-demethylation (CYP2D6), and terfenadine hydroxylation (CYP3A4) as typical substrate metabolism reactions of human main five CYP enzyme forms (CYP1A2, 2C9, 2C19, 2D6, 3A4) an inhibitory degree of each metabolite production amount by a test compound was assessed.
The reaction conditions were as follows: substrate, 0.5 μmol/L ethoxyresorufin (CYP1A2), 100 μmol/L tolbutamide (CYP2C9), 50 μmol/L S-mephenytoin (CYP2C19), 5 μmol/L dextromethorphan (CYP2D6), 1 μmol/L terfenedine (CYP3A4); reaction time, 15 minutes; reaction temperature, 37° C.; enzyme, pooled human hepatic microsome 0.2 mg protein/mL; test drug concentration, 1, 5, 10, 20 μmol/L (four points).
Each five kinds of substrates, human hepatic microsome, and a test drug in 50 mmol/L Hepes buffer as a reaction solution was added to a 96-well plate as the composition ad described above, NADPH, as a coenzyme was added to initiate metabolism reactions as markers and, after the incubation at 37° C. for 15 minutes, a methanol/acetonitrile=1/1 (V/V) solution was added to stop the reaction. After the centrifugation at 3000 rpm for 15 minutes, resorufin (CYP1A2 metabolite) in the supernatant was quantified by a fluorescent multilabel counter and tolbutamide hydroxide (CYP2C9 metabolite), mephenytoin 4′ hydroxide (CYP2C19 metabolite), dextrorphan (CYP2D6 metabolite), and terfenadine alcohol (CYP3A4 metabolite) were quantified by LC/MS/MS.

[7] = Human immunodeficiency virus 1, MT4, read-out: EC50 against T125A mutant virus, T125A mutant virus (HIV-1 NL-432 IN gene), MT-4 cells, MTT
[8] = Human immunodeficiency virus 1, MT4, 96 h, HIV (HTLV-IIIB strain), four days
[9] = T125A mutant virus (HIV-1 NL-432 IN gene), MT-4 cells, MTT, read-out: EC50 against T125A mutant virus
[10] = HIV (HTLV-IIIB strain), four days

Chain of CYP2C9 (P11712 whole entry): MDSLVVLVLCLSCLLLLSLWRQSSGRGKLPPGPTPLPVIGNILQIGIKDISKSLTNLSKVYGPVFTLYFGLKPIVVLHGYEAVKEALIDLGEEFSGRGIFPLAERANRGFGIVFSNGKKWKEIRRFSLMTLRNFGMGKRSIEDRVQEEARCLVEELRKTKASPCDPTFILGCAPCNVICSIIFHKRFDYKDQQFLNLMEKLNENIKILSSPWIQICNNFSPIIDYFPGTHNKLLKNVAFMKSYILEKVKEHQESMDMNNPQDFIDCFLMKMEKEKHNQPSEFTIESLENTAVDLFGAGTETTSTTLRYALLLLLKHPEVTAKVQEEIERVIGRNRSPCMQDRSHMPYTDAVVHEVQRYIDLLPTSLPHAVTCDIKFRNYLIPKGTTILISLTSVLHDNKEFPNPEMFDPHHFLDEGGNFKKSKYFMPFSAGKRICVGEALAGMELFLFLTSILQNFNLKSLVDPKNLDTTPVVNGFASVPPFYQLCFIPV
Chain of CYP3A4 (P08684 whole entry): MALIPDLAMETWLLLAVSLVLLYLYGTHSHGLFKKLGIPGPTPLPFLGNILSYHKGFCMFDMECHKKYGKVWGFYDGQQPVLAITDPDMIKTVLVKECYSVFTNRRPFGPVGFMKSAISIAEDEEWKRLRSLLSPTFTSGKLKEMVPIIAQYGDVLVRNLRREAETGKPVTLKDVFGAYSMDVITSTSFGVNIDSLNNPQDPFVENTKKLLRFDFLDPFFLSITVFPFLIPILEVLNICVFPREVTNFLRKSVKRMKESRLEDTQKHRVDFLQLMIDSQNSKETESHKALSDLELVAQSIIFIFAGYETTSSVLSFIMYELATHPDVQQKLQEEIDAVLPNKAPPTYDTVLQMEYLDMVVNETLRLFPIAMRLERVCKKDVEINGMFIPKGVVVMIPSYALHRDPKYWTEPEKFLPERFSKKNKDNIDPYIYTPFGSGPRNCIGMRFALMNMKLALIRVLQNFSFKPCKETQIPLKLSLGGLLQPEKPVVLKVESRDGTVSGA

Row | Compound | EC50 [1, 7] | EC50 [2, 8] | EC90 [2, 8] | Potency shift value [3] | Photohemolysis test, potential of phototoxicity (PI and met-Hb) [4] | CYP3A4 (MDZ) MBI, shifted IC [5] | EC50 [1, 9] | EC50 [2, 10] | EC90 [2, 10] | IC50 [6] | EC50 ([2]; HIV HTLV-IIIB strain, cultured four days)
1 | Cc1ccc(-c2c([C@H](OC(C)(C)C)C(=O)O)c(C)c3c4c2cc(C)n4CCN3C)cc1 [Compound I-001] | 4.7 nM | 0.69 nM | 1.1 nM | 13 | (−) (negative criteria (−), PI<10% and changes in absorbance at 630 nm<0.05, respectively) |  |  |  |  |  | 
2 | Cc1ccc(-c2c([C@H](OC(C)(C)C)C(=O)O)c(C)c3c4c2cc(C)n4CCN3S(C)(=O)=O)cc1 [Compound I-003] | 8.9 nM | 1.3 nM | 1.7 nM | 14 | (−) (negative criteria (−), PI<10% and changes in absorbance at 630 nm<0.05, respectively) | (−) (When a shifted IC was 1.0 or less, this was defined as negative) |  |  |  |  | 
3 | Cc1c([C@H](OC(C)(C)C)C(=O)O)c(-c2ccc(Cl)cc2)c2cc(C)n3c2c1N(C)CC3 [Compound I-012] | 3.8 nM | 0.77 nM | 1.1 nM | 13 | (−) (negative criteria (−), PI<10% and changes in absorbance at 630 nm<0.05, respectively) |  |  |  |  |  | 
4 | Cc1c([C@H](OC(C)(C)C)C(=O)O)c(-c2ccc(Cl)cc2)c2cc(C)n3c2c1N(S(C)(=O)=O)CC3 [Compound I-019] |  |  |  | 16 |  | (−) (When a shifted IC was 1.0 or less, this was defined as negative) | 6.6 nM | 1.2 nM | 1.6 nM |  | 
5 | COCCN1CCn2c(C)cc3c(-c4ccc(C)cc4)c([C@H](OC(C)(C)C)C(=O)O)c(C)c1c32 [Compound I-026] | 13 nM | 0.99 nM | 1.6 nM | 13 |  |  |  |  |  | > 20000 nM | 
6 | Cc1c([C@H](OC(C)(C)C)C(=O)O)c(-c2ccc(F)cc2)c2cc(C)n3c2c1N(C)CC3 [Compound I-048] | 11 nM | 1.2 nM | 1.5 nM | 9.2 | (−) (negative criteria (−), PI<10% and changes in absorbance at 630 nm<0.05, respectively) |  |  |  |  | > 20000 nM | 
7 | Cc1c([C@H](OC(C)(C)C)C(=O)O)c(-c2ccc(Cl)cc2)c2cc(C)n3c2c1N(c1ncccn1)CC3 [Compound I-085] |  |  |  | 22 | (−) (negative criteria (−), PI<10% and changes in absorbance at 630 nm<0.05, respectively) |  | 3.7 nM | 0.54 nM | 0.58 nM |  | 
8 | Cc1c([C@H](OC(C)(C)C)C(=O)O)c(-c2ccc(Cl)cc2)c2cc(C)n3c2c1N(CCN(C)C)[C@H](C)C3 [Compound I-112] | 18 nM | 4.9 nM | 11 nM | 3.5 | (−) (negative criteria (−), PI<10% and changes in absorbance at 630 nm<0.05, respectively) |  |  |  |  | > 20000 nM | 
9 | Cc1ccc(-c2c([C@H](OC(C)(C)C)C(=O)O)c(Cl)c3c4c2cc(C)n4CCN3C)cc1 [Compound I-187] |  |  |  | 11 |  | (−) (When a shifted IC was 1.0 or less, this was defined as negative) | 4.8 nM |  | 2.2 nM |  | 1 nM
10 | CCOc1cnc(N2CCn3c(C)cc4c(-c5ccc(C)cc5)c([C@H](OC(C)(C)C)C(=O)O)c(C)c2c43)nc1 [Compound I-197] |  | 1.3 nM | 2.2 nM | 32 | (−) (negative criteria (−), PI<10% and changes in absorbance at 630 nm<0.05, respectively) |  |  |  |  | > 20000 nM | 
11 | Cc1ccc(-c2c([C@H](OC(C)(C)C)C(=O)O)c(Cl)c3c4c2cc(C)n4CCN3CCN(C)C)cc1 [Compound I-265] | 44 nM | 13 nM | 30 nM | 2.5 |  |  |  |  |  |  | 
12 | [2H]C([2H])([2H])Oc1cnc(N2CCn3c(C)cc4c(-c5ccc(C)cc5)c([C@H](OC(C)(C)C)C(=O)O)c(C)c2c43)nc1 [Compound I-266] | 3.7 nM | 1.3 nM | 2.1 nM | 23 |  |  |  |  |  |  | 
13 | Cc1ccc(-c2c([C@H](OC(C)(C)C)C(=O)O)c(C)c3c4c2cc(C)n4CCN3c2ncc(OCC3COC3)cn2)cc1 [Compound I-268] | 4.8 nM | 1.5 nM | 2.1 nM | 19 |  |  |  |  |  |  | 
14 | Cc1ccc(-c2c([C@H](OC(C)(C)C)C(=O)O)c(C)c3c4c2cc(C)n4CCN3c2ncc(N3CCOCC3)cn2)cc1 [Compound I-272] | 4.3 nM | 1.6 nM | 2 nM | 16 |  |  |  |  |  |  | 
15 | Cc1ccc(-c2c([C@H](OC(C)(C)C)C(=O)O)c(C)c3c4c2cc(C)n4CCN3c2ncc(OCCN3CCOCC3)cn2)cc1 [Compound I-276] | 5.1 nM | 1.5 nM | 2.5 nM | 5.9 |  |  |  |  |  |  | 
16 | Cc1ccc(-c2c([C@H](OC(C)(C)C)C(=O)O)c(C)c3c4c2cc(C)n4CCN3c2ncc(O[C@@H]3CCN(C)C3)cn2)cc1 [Compound I-279] | 13 nM | 5.1 nM | 7.7 nM | 3.5 |  |  |  |  |  |  | 
17 | Cc1ccc(-c2c([C@H](OC(C)(C)C)C(=O)O)c(C)c3c4c2cc(C)n4CCN3c2ncc(OCF)cn2)cc1 [Compound I-282] | 4 nM | 1.4 nM | 2.1 nM | 36 |  |  |  |  |  |  | 
18 | Cc1ccc(-c2c([C@H](OC(C)(C)C)C(=O)O)c(C)c3c4c2cc(C)n4CCN3c2ccc(C)nn2)cc1 [Compound I-287] | 5.1 nM | 1.4 nM | 2.2 nM | 12 |  |  |  |  |  |  | 

Reference: patent US10494380B2, “Nitrogen-containing tricyclic derivatives having HIV replication inhibitory activity” (priority 2015, dated 2019)
